Calls of active or inactive are those of the source. The rule behind the calls is not given here.
Experiments:
[1] = Apparent volume of distribution in Sprague-Dawley rat at 2 mg/kg, iv measured for 36 hrs by MRM analysis; assay type: ADME, organism-based; conditions: in vivo, read-out: Vz
[2] = test system: HeLa; assay: Induction of apoptosis in human HeLa cells assessed as necrotic cells at 1.8 uM incubated for 24 hrs by PI staining based flow cytometry (reference value: 25.5 %); assay type: functional
[3] = molecular target: Cyclin-dependent kinase 5/CDK5 activator 1 (Homo sapiens, UniProt Q00535); assay: Inhibition of CDK5/p35 (unknown origin) using […] incubated for 40 mins in presence of ATP by Kinase-Glo assay; assay type: protein-complex assay
Sequence of Cyclin-dependent kinase 5/CDK5 activator 1 (Q00535 whole entry): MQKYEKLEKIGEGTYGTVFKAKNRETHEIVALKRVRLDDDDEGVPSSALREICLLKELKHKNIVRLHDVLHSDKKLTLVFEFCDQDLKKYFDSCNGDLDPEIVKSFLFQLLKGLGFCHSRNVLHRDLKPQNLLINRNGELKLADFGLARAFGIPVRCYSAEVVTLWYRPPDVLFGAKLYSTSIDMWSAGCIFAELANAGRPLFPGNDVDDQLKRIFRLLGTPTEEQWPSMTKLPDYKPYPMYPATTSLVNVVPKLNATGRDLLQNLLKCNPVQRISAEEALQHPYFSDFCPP
Sequence of Cyclin-dependent kinase 5/CDK5 activator 1 (Q15078 whole entry, further chain): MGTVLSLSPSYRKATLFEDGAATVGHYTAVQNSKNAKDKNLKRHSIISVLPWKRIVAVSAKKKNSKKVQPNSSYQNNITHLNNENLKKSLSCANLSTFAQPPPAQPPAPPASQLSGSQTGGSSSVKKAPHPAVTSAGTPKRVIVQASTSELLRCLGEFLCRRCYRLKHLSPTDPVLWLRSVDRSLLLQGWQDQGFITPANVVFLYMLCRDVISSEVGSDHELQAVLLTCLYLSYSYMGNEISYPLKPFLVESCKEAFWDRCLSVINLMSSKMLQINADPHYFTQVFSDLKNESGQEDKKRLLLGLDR

[4] = test system: HCT-116; assay: Cytotoxicity against human HCT-116 cells assessed as cell growth inhibition incubated for 48 hrs by MTT assay; assay type: functional, cell-based; conditions: HCT-116, 48 h
[5] = test system: HCT-116; assay: Induction of cell cycle arrest in human HCT-116 cells assessed as accumulation at G1/G0 phase at 0.8 uM incubated for 24 hrs by PI staining based flow cytometry (reference value: 58.29 +/- 2.01 %); assay type: functional
[6] = test system: HeLa; assay: Antiproliferative activity against human HeLa cells assessed as cell growth inhibition incubated for 48 hrs by MTT assay; assay type: functional, cell-based
[7] = Inhibition of CDK1/cyclin B (unknown origin) using […] incubated for 40 mins in presence of ATP by Kinase-Glo assay; parameters: species or system Homo sapiens
[8] = test system: HCT-116; assay: Induction of apoptosis in human HCT-116 cells assessed as early apoptotic cells at 0.2 uM incubated for 24 hrs by PI staining based flow cytometry (reference value: 0.19 %); assay type: functional
[9] = Toxicity in Balb/c-nu nude mouse xenografted with human HCT-116 cells assessed as toxicity in liver at 35 to 70 mg/kg/day, po treated for 30 days by H and E staining based analysis; assay type: organism-based; conditions: in vivo, 720 h, dose 35-70 mg/kg/day, time 30 day
[10] = test system: HeLa; assay: Effect on Bax level in human HeLa cells upto 3.6 uM incubated for 24 hrs by Western blot analysis; assay type: functional, cell-based
[11] = test system: HCT-116; assay: Induction of cell cycle arrest in human HCT-116 cells assessed as accumulation at G2/M phase at 0.2 uM incubated for 24 hrs by PI staining based flow cytometry (reference value: 20.6 +/- 3.38 %); assay type: functional
[12] = test system: HCT-116; assay: Induction of apoptosis in human HCT-116 cells assessed as necrotic cells at 0.8 uM incubated for 24 hrs by PI staining based flow cytometry (reference value: 18.9 %); assay type: functional
[13] = test system: HeLa; assay: Induction of cell cycle arrest in human HeLa cells assessed as accumulation at S phase at 1.8 uM incubated for 24 hrs by PI staining based flow cytometry (reference value: 17.84 +/- 1.89 %); assay type: functional
[14] = test system: HeLa; assay: Induction of cell cycle arrest in human HeLa cells assessed as accumulation at sub-G1 phase at 1.8 uM incubated for 24 hrs by PI staining based flow cytometry (reference value: 1.89 +/- 0.56 %); assay type: functional
[15] = molecular target: Cyclin-dependent kinase 9 (Homo sapiens) (UniProt P50750); assay: Inhibition of CDK9 in human HCT-116 cells assessed as reduction in Rpb1 phosphorylation at Ser2/5 incubated for 24 hr s by Western blot analysis; assay type: cell-based; conditions: dose <= 0.8 µM
Sequence of Cyclin-dependent kinase 9 (Homo sapiens) (P50750 whole entry): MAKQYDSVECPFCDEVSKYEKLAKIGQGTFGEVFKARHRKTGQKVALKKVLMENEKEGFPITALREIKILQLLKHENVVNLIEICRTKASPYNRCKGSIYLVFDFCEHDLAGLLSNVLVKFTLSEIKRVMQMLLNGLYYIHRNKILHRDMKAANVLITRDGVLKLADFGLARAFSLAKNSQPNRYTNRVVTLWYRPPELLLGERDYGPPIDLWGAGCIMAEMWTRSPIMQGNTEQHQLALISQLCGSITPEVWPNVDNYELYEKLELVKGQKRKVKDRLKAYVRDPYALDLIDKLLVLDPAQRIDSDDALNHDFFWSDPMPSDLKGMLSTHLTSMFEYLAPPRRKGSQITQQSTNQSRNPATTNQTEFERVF

[16] = Toxicity in Balb/c-nu nude mouse xenografted with human HCT-116 cells assessed as toxic reactions at 35 to 70 mg/kg/day, po treated for 30 days; assay type: organism-based; conditions: in vivo, 720 h, dose 35-70 mg/kg/day, time 30 day
[17] = MRT (0 to infinity) in Sprague-Dawley rat at 2 mg/kg, iv measured for 36 hrs by MRM analysis; assay type: ADME, organism-based; conditions: in vivo
[18] = test system: HeLa; assay: Induction of cell cycle arrest in human HeLa cells assessed as accumulation at G1/G0 phase at 0.9 uM incubated for 24 hrs by PI staining based flow cytometry (reference value: 57.63 +/- 1.7 %); assay type: functional
[19] = Apparent volume of distribution in Sprague-Dawley rat at 10 mg/kg, po measured for 36 hrs by MRM analysis; assay type: ADME, organism-based; conditions: in vivo
[20] = test system: HeLa; assay: Induction of apoptosis in human HeLa cells assessed as increase in cleaved PARP level upto 3.6 uM incubated for 24 hrs by Western blot analysis; assay type: functional, cell-based
[21] = test system: HCT-116; assay: Induction of cell cycle arrest in human HCT-116 cells assessed as accumulation at G2/M phase at 0.8 uM incubated for 24 hrs by PI staining based flow cytometry (reference value: 20.6 +/- 3.38 %); assay type: functional
[22] = test system: U-87 MG; assay: Antiproliferative activity against human U-87 MG cells assessed as cell growth inhibition incubated for 48 hrs by MTT assay; assay type: functional, cell-based, U-87MG ATCC
[23] = test system: MV4-11; assay: Antiproliferative activity against human MV4-11 cells assessed as cell growth inhibition incubated for 48 hrs by MTT assay; assay type: functional, cell-based; conditions: MV4-11, 48 h
[24] = Half life in Sprague-Dawley rat at 10 mg/kg, po measured for 36 hrs by MRM analysis; assay type: ADME, organism-based; conditions: in vivo
[25] = test system: HepG2; assay: Antiproliferative activity against human HepG2 cells assessed as cell growth inhibition incubated for 48 hrs by MTT assay; assay type: functional, cell-based; conditions: HepG2, 48 h
[26] = test system: HCT-116; assay: Induction of cell cycle arrest at G2/M phase in human HCT-116 cells assessed as decrease in cyclin B1 level incubated for 48 hrs by Western blot analysis; assay type: functional, cell-based; conditions: dose <= 0.8 µM
[27] = test system: HCT-116; assay: Induction of apoptosis in human HCT-116 cells assessed as early apoptotic cells at 0.8 uM incubated for 24 hrs by PI staining based flow cytometry (reference value: 0.19 %); assay type: functional
[28] = test system: HCT-116; assay: Antitumor activity against human HCT-116 cells xenografted in Balb/c-nu nude mouse at 35 mg/kg/day, po treated for 7 days consecutively relative to control; assay type: functional; conditions: HCT-116, 168 h, time 7 day, read-out: TGI
[29] = test system: HeLa; assay: Induction of cell cycle arrest at G2/M phase in human HeLa cells assessed as decrease in p-Cdc2 level incubated for 48 hrs by Western blot analysis; assay type: functional, cell-based; conditions: dose <= 3.6 µM
[30] = molecular target: Cyclin-dependent kinase 2 (Homo sapiens) (UniProt P24941); assay: Inhibition of CDK2 in human HCT-116 cells assessed as reduction in Rb phosphorylation at Ser807/811 incubated for 24 hr s by Western blot analysis; assay type: cell-based; conditions: dose <= 0.8 µM
[31] = test system: HCT-116; assay: Induction of apoptosis in human HCT-116 cells assessed as late apoptotic cells at 0.8 uM incubated for 24 hrs by PI staining based flow cytometry (reference value: 1.11 %); assay type: functional
[32] = test system: HeLa; assay: Induction of apoptosis in human HeLa cells assessed as necrotic cells at 0.9 uM incubated for 24 hrs by PI staining based flow cytometry (reference value: 25.5 %); assay type: functional
[33] = test system: HeLa; assay: Induction of cell cycle arrest in human HeLa cells assessed as accumulation at G2/M phase at 3.6 uM incubated for 24 hrs by PI staining based flow cytometry (reference value: 24.6 +/- 1.11 %); assay type: functional
[34] = test system: HCT-116; assay: Induction of cell cycle arrest in human HCT-116 cells assessed as accumulation at sub-G1 phase at 0.8 uM incubated for 24 hrs by PI staining based flow cytometry (reference value: 2.45 +/- 0.49 %); assay type: functional
[35] = test system: HCT-116; assay: Induction of apoptosis in human HCT-116 cells assessed as increase in cleaved PARP level upto 0.8 uM incubated for 24 hrs by Western blot analysis; assay type: functional, cell-based

Vd [1]: 275 L/kg
IC50 [3]: 119 nM
IC50 [6]: 1840 nM
IC50 [7]: 53 nM
inhibition [15]: Dose-dependent-effect
MRT inf [17]: 2.8 h
Vz [19]: 398.7 L/kg
IC50 [22]: 1010 nM
IC50 [23]: 121 nM
half-life [24]: 4 h
IC50 [25]: 2090 nM
inhibition [30]: Dose-dependent-effect
Structure (SMILES): Cc1cnc(Nc2ccc(S(N)(=O)=O)cc2)nc1Nc1nccs1
Activity [2]: 0.22%
IC50 [4]: 462 nM
Activity [5]: 43.88%
Activity [8]: 2%
Activity [9]: Non-toxic
Activity [10]: No effect
Activity [11]: 24.4%
Activity [12]: 4%
Activity [13]: 16.79%
Activity [14]: 1.28%
Activity [16]: Non-toxic
Activity [18]: 52.88%
Activity [20]: Active
Activity [21]: 37.16%
Activity [26]: Dose-dependent-effect
Activity [27]: 15.5%
inhibition in vivo at 35 mg/kg/day [28]: 39%
Activity [29]: Dose-dependent-effect
Activity [31]: 27.7%
Activity [32]: 0.81%
Activity [33]: 44.19%
Activity [34]: 1.71%
Activity [35]: Active

From ChEMBL document CHEMBL6096697, “Structure-Guided Discovery of Novel N4-(Substituted Thiazol-2-yl)-N2-(4-Substituted phenyl)pyrimidine-2,4-Diamines as Potent CDK2 and CDK9 Dual Inhibitors with High Oral Bioavailability” (J Med Chem, 2025)
